In BigSolDB 2.1:

CCc1nnc(NC(=O)c2ccc([N+](=O)[O-])cc2)s1
solubility (mole fraction)
Settings	288.15 K	293.15 K	298.15 K	303.15 K	308.15 K	313.15 K	318.15 K
in ethanol	2.81e-05	3.17e-05	3.91e-05	4.87e-05	5.95e-05	7.34e-05	8.87e-05
in n-hexane	6.2e-06	7.4e-06	9.5e-06	1.19e-05	1.44e-05	1.79e-05	2.11e-05
in n-octanol	4.34e-05	5.22e-05	6.52e-05	8.06e-05	9.61e-05	0.000118	0.00014
